Measurements taken from ChEMBL document CHEMBL4411307, “N,N'-diaryl-bishydrazones in a biphenyl platform: Broad spectrum antifungal agents” (Eur J Med Chem, 2019).
In brackets after ≈: the same amount, converted by molar mass. Activity calls are given as the source filed them. No cut-off for these calls is given here.

Assays:
Listeria monocytogenes = experiment: Antibacterial activity against Listeria monocytogenes; assay type: functional, organism-based
Staphylococcus aureus = experiment: Antibacterial activity against methicillin-resistant Staphylococcus aureus; assay type: functional, organism-based
Enterococcus = experiment: Antibacterial activity against vancomycin-resistant Enterococcus; assay type: functional, organism-based
Candida albicans [1] = experiment: Antifungal activity against fluconazole/ITC-resistant Candida albicans ATCC 10231 measured after 48 hrs by CLSI M27-A3 protocol based method; assay type: functional; conditions: ATCC 10231, 48 h
Candida albicans [2] = experiment: Antifungal activity against fluconazole/ITC-resistant Candida albicans ATCC 64124 measured after 48 hrs by CLSI M27-A3 protocol based method; assay type: functional; conditions: ATCC 64124, 48 h
Candida albicans [3] = experiment: Antifungal activity against fluconazole/ITC-susceptible Candida albicans ATCC MYA-2876 measured after 48 hrs by CLSI M27-A3 protocol based method; assay type: functional; conditions: ATCC MYA-2876, 48 h
Candida albicans [4] = experiment: Antifungal activity against fluconazole/ITC-resistant Candida albicans ATCC 90819 measured after 48 hrs by CLSI M27-A3 protocol based method; assay type: functional; conditions: ATCC 90819, 48 h
Candida albicans [5] = experiment: Antifungal activity against fluconazole/ITC-susceptible Candida albicans ATCC MYA-2310 measured after 48 hrs by CLSI M27-A3 protocol based method; assay type: functional; conditions: ATCC MYA-2310, 48 h
Candida albicans [6] = experiment: Antifungal activity against fluconazole/ITC-resistant Candida albicans ATCC MYA-1237 measured after 48 hrs by CLSI M27-A3 protocol based method; assay type: functional; conditions: ATCC MYA-1237, 48 h
Candida albicans [7] = experiment: Antifungal activity against fluconazole/ITC-resistant Candida albicans ATCC MYA-1003 measured after 48 hrs by CLSI M27-A3 protocol based method; assay type: functional; conditions: ATCC MYA-1003, 48 h
Nakaseomyces glabratus = experiment: Antifungal activity against Candida glabrata ATCC 2001 measured after 48 hrs by CLSI M27-A3 protocol based method; assay type: functional; conditions: CBS 138, 48 h
Pichia kudriavzevii = experiment: Antifungal activity against Candida krusei ATCC 6258 measured after 48 hrs by CLSI M27-A3 protocol based method; assay type: functional; conditions: ATCC 6258, 48 h
Candida parapsilosis = experiment: Antifungal activity against Candida parapsilosis ATCC 22019 measured after 48 hrs by CLSI M27-A3 protocol based method; assay type: functional; conditions: Lodderomyces parapsilosis, ATCC 22019, 48 h
Aspergillus flavus = experiment: Antifungal activity against Aspergillus flavus ATCC MYA-3631 measured after 48 hrs by CLSI M38-A2 protocol based method; assay type: functional; conditions: ATCC MYA-3631, 48 h
Aspergillus nidulans = experiment: Antifungal activity against Aspergillus nidulans ATCC 38163 measured after 48 hrs by CLSI M38-A2 protocol based method; assay type: functional; conditions: ATCC 38163, 48 h
Aspergillus terreus = experiment: Antifungal activity against Aspergillus terreus ATCC MYA-3633 measured after 48 hrs by CLSI M38-A2 protocol based method; assay type: functional; conditions: ATCC MYA-3633, 48 h
A549 = experiment: Cytotoxicity against human A549 cells after 24 hrs by resazurin based assay; assay type: cell-based; conditions: a549, 24 h
BEAS-2B = experiment: Cytotoxicity against human BEAS2B cells after 24 hrs by resazurin based assay; assay type: cell-based
[8] = Selectivity index, ratio of CC50 for human A549 cells to MIC for fluconazole/ITC-resistant Candida albicans ATCC 10231; assay type: toxicity; conditions: read-out: Selectivity Index
[9] = Selectivity index, ratio of CC50 for human A549 cells to MIC for fluconazole/ITC-resistant Candida albicans ATCC 64124; assay type: toxicity; conditions: read-out: Selectivity Index
[10] = Selectivity index, ratio of CC50 for human A549 cells to MIC for fluconazole/ITC-susceptible Candida albicans ATCC MYA-2876; assay type: toxicity; conditions: read-out: Selectivity Index
[11] = Selectivity index, ratio of CC50 for human A549 cells to MIC for fluconazole/ITC-resistant Candida albicans ATCC 90819; assay type: toxicity; conditions: read-out: Selectivity Index
[12] = Selectivity index, ratio of CC50 for human A549 cells to MIC for fluconazole/ITC-susceptible Candida albicans ATCC MYA-2310; assay type: toxicity; conditions: read-out: Selectivity Index
[13] = Selectivity index, ratio of CC50 for human A549 cells to MIC for fluconazole/ITC-resistant Candida albicans ATCC MYA-1237; assay type: toxicity; conditions: read-out: Selectivity Index
[14] = Selectivity index, ratio of CC50 for human A549 cells to MIC for fluconazole/ITC-resistant Candida albicans ATCC MYA-1003; assay type: toxicity; conditions: read-out: Selectivity Index
[15] = Selectivity index, ratio of CC50 for human A549 cells to MIC for Candida glabrata ATCC 2001; assay type: toxicity; conditions: read-out: Selectivity Index
[16] = Selectivity index, ratio of CC50 for human A549 cells to MIC for Candida krusei ATCC 6258; assay type: toxicity; conditions: read-out: Selectivity Index
[17] = Selectivity index, ratio of CC50 for human A549 cells to MIC for Candida parapsilosis ATCC 22019; assay type: toxicity; conditions: read-out: Selectivity Index
[18] = Selectivity index, ratio of CC50 for human A549 cells to MIC for Aspergillus nidulans ATCC 38163; assay type: toxicity; conditions: read-out: Selectivity Index
[19] = Selectivity index, ratio of CC50 for human A549 cells to MIC for Aspergillus terreus ATCC MYA-3633; assay type: toxicity; conditions: read-out: Selectivity Index
[20] = Hemolytic activity in mouse RBC at […] after 1 hr relative to control; assay type: ADME, cell-based, Erythrocyte; conditions: red blood cells (erythrocytes), read-out: Activity; note: tested at 0.48 µg/mL
[21] = Hemolytic activity in mouse RBC at […] ug/ml after 1 hr relative to control; assay type: ADME, cell-based, Erythrocyte; conditions: red blood cells (erythrocytes), read-out: Activity
[22] = Hemolytic activity in mouse RBC at 1.95 ug/ml after 1 hr relative to control; assay type: ADME, cell-based, Erythrocyte; conditions: red blood cells (erythrocytes), read-out: Activity
[23] = Hemolytic activity in mouse RBC at 3.9 ug/ml after 1 hr relative to control; assay type: ADME, cell-based, Erythrocyte; conditions: red blood cells (erythrocytes), read-out: Activity
[24] = Hemolytic activity in mouse RBC at 7.8 ug/ml after 1 hr relative to control; assay type: ADME, cell-based, Erythrocyte; conditions: red blood cells (erythrocytes), read-out: Activity
[25] = Hemolytic activity in mouse RBC at 31.3 ug/ml after 1 hr relative to control; assay type: ADME, cell-based, Erythrocyte; conditions: red blood cells (erythrocytes), read-out: Activity
[26] = Hemolytic activity in mouse RBC at 62.5 ug/ml after 1 hr relative to control; assay type: ADME, cell-based, Erythrocyte; conditions: red blood cells (erythrocytes), read-out: Activity
[27] = Selectivity index, ratio of compound concentration showing <20 to <30% hemolysis in mouse RBC to MIC for fluconazole/ITC-resistant Candida albicans ATCC 10231; assay type: toxicity; conditions: red blood cells (erythrocytes), read-out: Selectivity Index
[28] = Selectivity index, ratio of compound concentration showing <20 to <30% hemolysis in mouse RBC to MIC for fluconazole/ITC-resistant Candida albicans ATCC 64124; assay type: toxicity; conditions: red blood cells (erythrocytes), read-out: Selectivity Index
[29] = Selectivity index, ratio of compound concentration showing <20 to <30% hemolysis in mouse RBC to MIC for fluconazole/ITC-susceptible Candida albicans ATCC MYA-2876; assay type: toxicity; conditions: red blood cells (erythrocytes), read-out: Selectivity Index
[30] = Selectivity index, ratio of compound concentration showing <20 to <30% hemolysis in mouse RBC to MIC for fluconazole/ITC-resistant Candida albicans ATCC 90819; assay type: toxicity; conditions: red blood cells (erythrocytes), read-out: Selectivity Index
[31] = Selectivity index, ratio of compound concentration showing <20 to <30% hemolysis in mouse RBC to MIC for fluconazole/ITC-susceptible Candida albicans ATCC MYA-2310; assay type: toxicity; conditions: mouse red blood cells (RBC), read-out: Selectivity Index
[32] = Selectivity index, ratio of compound concentration showing <20 to <30% hemolysis in mouse RBC to MIC for fluconazole/ITC-resistant Candida albicans ATCC MYA-1237; assay type: toxicity; conditions: mouse red blood cells (RBC), read-out: Selectivity Index
[33] = Selectivity index, ratio of compound concentration showing <20 to <30% hemolysis in mouse RBC to MIC for fluconazole/ITC-resistant Candida albicans ATCC MYA-1003; assay type: toxicity; conditions: mouse red blood cells (RBC), read-out: Selectivity Index
[34] = Selectivity index, ratio of compound concentration showing <20 to <30% hemolysis in mouse RBC to MIC for Candida glabrata ATCC 2001; assay type: toxicity; conditions: mouse red blood cells (RBC), read-out: Selectivity Index
[35] = Selectivity index, ratio of compound concentration showing <20 to <30% hemolysis in mouse RBC to MIC for Candida krusei ATCC 6258; assay type: toxicity; conditions: mouse red blood cells (RBC), read-out: Selectivity Index
[36] = Selectivity index, ratio of compound concentration showing <20 to <30% hemolysis in mouse RBC to MIC for Candida parapsilosis ATCC 22019; assay type: toxicity; conditions: mouse red blood cells (RBC), read-out: Selectivity Index
[37] = Selectivity index, ratio of compound concentration showing <20 to <30% hemolysis in mouse RBC to MIC for Aspergillus flavus ATCC MYA-3631; assay type: toxicity; conditions: mouse red blood cells (RBC), read-out: Selectivity Index
[38] = Selectivity index, ratio of compound concentration showing <20 to <30% hemolysis in mouse RBC to MIC for Aspergillus nidulans ATCC 38163; assay type: toxicity; conditions: mouse red blood cells (RBC), read-out: Selectivity Index
[39] = Selectivity index, ratio of compound concentration showing <20 to <30% hemolysis in mouse RBC to MIC for Aspergillus terreus ATCC MYA-3633; assay type: toxicity; conditions: mouse red blood cells (RBC), read-out: Selectivity Index

Fc1cccc(N/N=C/c2ccc(-c3ccc(/C=N/Nc4cccc(F)c4)cc3)cc2)c1
Activity (Listeria monocytogenes): inactive
Activity (Staphylococcus aureus): inactive
Activity (Enterococcus): inactive
MIC (Candida albicans [1]): 7.8 µg/mL (≈ 18.3 µM)
MIC (Candida albicans [2]): > 31.3 µg/mL
MIC (Candida albicans [3]): > 31.3 µg/mL
MIC (Candida albicans [4]): > 31.3 µg/mL
MIC (Candida albicans [5]): > 31.3 µg/mL
MIC (Candida albicans [6]): > 31.3 µg/mL
MIC (Candida albicans [7]): > 31.3 µg/mL
MIC (Nakaseomyces glabratus): > 31.3 µg/mL
MIC (Pichia kudriavzevii): 15.6 µg/mL (≈ 36.6 µM)
MIC (Candida parapsilosis): 3.9 µg/mL (≈ 9.14 µM)
MIC (Aspergillus flavus): 31.3 µg/mL (≈ 73.4 µM)
MIC (Aspergillus nidulans): > 31.3 µg/mL
MIC (Aspergillus terreus): > 31.3 µg/mL
CC50 (A549): > 31 µg/mL
CC50 (BEAS-2B): 16 µg/mL (≈ 37.5 µM)
selectivity ratio [8]: 4
selectivity ratio [9]: 1
selectivity ratio [10]: 1
selectivity ratio [11]: 1
selectivity ratio [12]: 1
selectivity ratio [13]: 1
selectivity ratio [14]: 1
selectivity ratio [15]: 1
selectivity ratio [16]: 2
selectivity ratio [17]: 8
selectivity ratio [18]: 1
selectivity ratio [19]: 1
hemolysis at 1 h, […] [20]: 0.2%
hemolysis at 1 h, 15.6 ug/ml ([21]; at 15.6 µg/mL): 7.7%
hemolysis at 1 h, 0.975 ug/ml [21]: 0.8%
hemolysis at 1 h, 1.95 ug/ml [22]: 0%
hemolysis at 1 h, 3.9 ug/ml [23]: 3.2%
hemolysis at 1 h, 7.8 ug/ml [24]: 2.6%
hemolysis at 1 h, 31.3 ug/ml [25]: 10.3%
hemolysis at 1 h, 62.5 ug/ml [26]: 13.6%
selectivity ratio [27]: 1 to 32
selectivity ratio [28]: 1 to 32
selectivity ratio [29]: 1 to 32
selectivity ratio [30]: 1 to 32
selectivity ratio [31]: 1 to 32
selectivity ratio [32]: 1 to 32
selectivity ratio [33]: 1 to 32
selectivity ratio [34]: 1 to 32
selectivity ratio [35]: 1 to 32
selectivity ratio [36]: 1 to 32
selectivity ratio [37]: 1 to 32
selectivity ratio [38]: 1 to 32
selectivity ratio [39]: 1 to 32
